Our source for the ED50 and ED35 values is patent US3950427A, “Araliphatic ketones and carbinols” (Boehringer Ingelheim GmbH, priority 1973, dated 1976).

Read-outs that look alike come from different tables or passages of the source.

Common to all, as to format: in vivo, rat (male FW 49)
One test has as its system Adjuvant arthritis-rat. The experiment in a line: Adjuvant arthritis test on rats (M.butyricum). The settings on record: po, 504 h, 21st day, once daily for 20 days by esophageal tube. As to the method:
The adjuvant arthritis tests on rats were performed in analogy to the procedure described by Rosenthale and Nagra [Proc. Soc. exp. Biol. Med. 125, 149 (1967)].
Male FW 49-rats were given a subplantar injection of 0.1 ml of a 1% suspension of M.butyricum in viscous paraffin oil in a hind paw. The test compound was administered, beginning with the M.butyricum injection, once daily for 20 days by esophageal tube.
On the 21st day after inducing the arthritis, the volumes of the right paw (non-specific primary reaction at the place of injection) and the left paw (immunologically predicated specific secondary reaction) of the animals treated with the test compound were compared with those of the blind-treated control animals. From the swelling reduction obtained with the various doses, an ED50 was graphically determined.

Test [1] concerns Carrageenin-induced edema of the hind paw of the rat. The experiment in a line: Carrageenin-induced edema of the hind paw of the rat (anti-exudative effect). As to conditions: Rattus norvegicus, po, 3 h, 60 minutes before provocation, swelling 3 hours after, read-out: Carrageenin edema ED35 per os. The protocol:
(§1) The compunds were tested for their anti-exudative effect on Kaolin-induced edema and carrageenin-induced edema in the hind paw of the rat after oral administration to the rat.
(§2) The test compound was administered orally to male FW 49 rats weighing 120-150 gm by means of an esophageal tube 30 minutes before inducing the edema. 5 hours after inducing the edema the average size of the swelling in the rats treated with the test compound was compared with the size of the swelling in blind-treated control animals. By graphic extrapolation the dose leading to a 35% of the swelling (ED35) was calculated from the percentage reduction in the size of the swelling caused by the administration of different doses.
b. Carrageenin-induced edema of the hind paw of the rat
(§3) The carrageenin edema was induced according to the method of Winder et al. [Proc. Soc. exp. Biol. Med. 111, 544 (1962)] by subplanar injection of 0.05 ml of a 1% solution of carrageenin in a 0.85% solution of sodium chloride. The test compound was administered 60 minutes before the provocation of the edema.
(§4) For the calculation of the reductive effect on the edema, the size of the swelling was measured 3 hours after the provocation of the edema. All other details were the same as described above in the case of the kaolin edema.

Test [2] concerns Kaolin-induced edema of the hind paw of the rat. The experiment in a line: Kaolin-induced edema of the hind paw of the rat (anti-exudative effect). As to conditions: Rattus norvegicus, po, 5 h, 30 minutes before inducing edema, swelling 5 hours after, read-out: Kaolin edema ED35 per os. The protocol: as §1
a. Kaolin-induced edema of the hind paw of the rat
(§5) The kaolin edema was induced according to the method given by Hillebrecht [Arzneimittel-Forsch. 4, 607 (1954)] by subplanar injection of 0.05 ml of a 10% suspension of kaolin in a 0.85% sodium chloride solution. Measurement of the thickness of the paws was effected using the technique of Doepfner and Cerletti [Int. Arch. Allergy Immunol. 12, 89 (1958)].
as §2

The subject of test [3] is Kaolin edema and carrageenin edema of the hind paw of the rat. The experiment in a line: Average value of kaolin edema and carrageenin edema. The settings on record: Rattus norvegicus, per os, Table I. As to the method: as §1, §5, §2, §3, §4

For the compound `C/C(=C\C(C)O)c1ccc(C2CCCCC2)c(Cl)c1` (stereo not shown) [R, (e)-4-(3-chloro-4-cyclohexyl-phenyl)-3-pentene-2-ol], the ED50 was less than 0.7 mg/kg with Adjuvant arthritis-rat (left paw volume, read-out: Adjuvant arthritis-rat ED50 per os, Secondary reaction) and less than 0.3 mg/kg in the test on Adjuvant arthritis-rat (right paw volume, read-out: Adjuvant arthritis-rat ED50 per os, Primary reaction). The ED35 in test [1] (Table I) amounted to 3.1 mg/kg; in test [1] (Table II), 3.1 mg/kg; in test [2] (Table I), 4.8 mg/kg; in test [2] (Table II), 4.8 mg/kg; in test [3], 3.95 mg/kg.
